Source: ChEMBL document CHEMBL5512659, “Structure optimizing of flavonoids against both MRSA and VRE” (Eur J Med Chem, 2024)
≈ marks a conversion by molar mass, not a printed value.

Assays:
Assay type in all cases: functional
Staphylococcus aureus [1] = assay: Antibacterial activity against methicillin resistant Staphylococcus aureus clinical isolate 003
Staphylococcus aureus [2] = assay: Antibacterial activity against Staphylococcus aureus clinical isolate 31
Staphylococcus aureus [3] = assay: Antibacterial activity against Staphylococcus aureus clinical isolate 29
Enterococcus faecalis [4] = assay: Antibacterial activity against Enterococcus faecalis clinical isolate 7
Staphylococcus aureus [5] = assay: Antibacterial activity against methicillin resistant Staphylococcus aureus clinical isolate 031
Staphylococcus aureus [6] = assay: Antibacterial activity against methicillin resistant Staphylococcus aureus clinical isolate 011
Enterococcus faecalis [7] = assay: Antibacterial activity against Enterococcus faecalis clinical isolate 13
Enterococcus faecalis [8] = assay: Antibacterial activity against multidrug resistant Enterococcus faecalis ATCC 51299

Structure (SMILES)	MIC (Staphylococcus aureus [1])	MIC (Staphylococcus aureus [2])	MIC (Staphylococcus aureus [3])	MIC (Enterococcus faecalis [4])	MIC (Staphylococcus aureus [5])	MIC (Staphylococcus aureus [6])	MIC (Enterococcus faecalis [7])	MIC (Enterococcus faecalis [8])
CCCCCCc1c(-c2ccc(OCCCCNCc3ccc(C(F)(F)F)cc3)cc2OCCCCNCc2ccc(C(F)(F)F)cc2)oc2cc(OC)cc(O)c2c1=O	16 µg/mL (≈ 19 µM)	8 µg/mL (≈ 9.49 µM)	16 µg/mL (≈ 19 µM)	32 µg/mL (≈ 38 µM)	8 µg/mL (≈ 9.49 µM)	8 µg/mL (≈ 9.49 µM)	8 µg/mL (≈ 9.49 µM)	16 µg/mL (≈ 19 µM)
CCCCCCc1c(-c2ccc(OCCCCNC3CCCCC3)cc2OCCCCNC2CCCCC2)oc2cc(OC)cc(O)c2c1=O	1 µg/mL (≈ 1.45 µM)	2 µg/mL (≈ 2.89 µM)	1 µg/mL (≈ 1.45 µM)	1 µg/mL (≈ 1.45 µM)	4 µg/mL (≈ 5.79 µM)	2 µg/mL (≈ 2.89 µM)	1 µg/mL (≈ 1.45 µM)	2 µg/mL (≈ 2.89 µM)
CCCCCCc1c(-c2ccc(OCCCCNCC)cc2OCCCCNCC)oc2cc(OC)cc(O)c2c1=O	1 µg/mL (≈ 1.72 µM)	1 µg/mL (≈ 1.72 µM)	2 µg/mL (≈ 3.43 µM)	2 µg/mL (≈ 3.43 µM)	2 µg/mL (≈ 3.43 µM)	2 µg/mL (≈ 3.43 µM)	1 µg/mL (≈ 1.72 µM)	2 µg/mL (≈ 3.43 µM)
CCCCCCc1c(-c2ccc(OCCCCN3CCCCC3)cc2OCCCCN2CCCCC2)oc2cc(OC)cc(O)c2c1=O	2 µg/mL (≈ 3.02 µM)	1 µg/mL (≈ 1.51 µM)	2 µg/mL (≈ 3.02 µM)	2 µg/mL (≈ 3.02 µM)	2 µg/mL (≈ 3.02 µM)	1 µg/mL (≈ 1.51 µM)	1 µg/mL (≈ 1.51 µM)	2 µg/mL (≈ 3.02 µM)
CCCCCCc1c(-c2ccc(OCCCCNCc3ccc(F)cc3)cc2OCCCCNCc2ccc(F)cc2)oc2cc(OC)cc(O)c2c1=O	16 µg/mL (≈ 21.5 µM)	8 µg/mL (≈ 10.8 µM)	16 µg/mL (≈ 21.5 µM)	32 µg/mL (≈ 43.1 µM)	16 µg/mL (≈ 21.5 µM)	16 µg/mL (≈ 21.5 µM)	8 µg/mL (≈ 10.8 µM)	16 µg/mL (≈ 21.5 µM)
CCCCCCc1c(-c2ccc(OCCCCCCN(C)C)cc2OCCCCCCN(C)C)oc2cc(OC)cc(O)c2c1=O	2 µg/mL (≈ 3.13 µM)	2 µg/mL (≈ 3.13 µM)	2 µg/mL (≈ 3.13 µM)	4 µg/mL (≈ 6.26 µM)	2 µg/mL (≈ 3.13 µM)	4 µg/mL (≈ 6.26 µM)	1 µg/mL (≈ 1.57 µM)	4 µg/mL (≈ 6.26 µM)
CCCCCCc1c(-c2ccc(OCCCCNCCC)cc2OCCCCNCCC)oc2cc(OC)cc(O)c2c1=O	2 µg/mL (≈ 3.27 µM)	2 µg/mL (≈ 3.27 µM)	2 µg/mL (≈ 3.27 µM)	2 µg/mL (≈ 3.27 µM)	2 µg/mL (≈ 3.27 µM)	2 µg/mL (≈ 3.27 µM)	2 µg/mL (≈ 3.27 µM)	2 µg/mL (≈ 3.27 µM)
CCCCCCNCCCCOc1ccc(-c2oc3cc(OC)cc(O)c3c(=O)c2CCCCCC)c(OCCCCNCCCCCC)c1	8 µg/mL (≈ 11.5 µM)	4 µg/mL (≈ 5.76 µM)	16 µg/mL (≈ 23 µM)	32 µg/mL (≈ 46 µM)	8 µg/mL (≈ 11.5 µM)	16 µg/mL (≈ 23 µM)	64 µg/mL (≈ 92.1 µM)	64 µg/mL (≈ 92.1 µM)
CCCCCCc1c(-c2ccc(OCCCCNCCCCCCCCN)cc2OCCCCNCCCCCCCCN)oc2cc(OC)cc(O)c2c1=O	0.5 µg/mL (≈ 0.64 µM)	0.5 µg/mL (≈ 0.64 µM)	1 µg/mL (≈ 1.28 µM)	1 µg/mL (≈ 1.28 µM)	1 µg/mL (≈ 1.28 µM)	1 µg/mL (≈ 1.28 µM)	1 µg/mL (≈ 1.28 µM)	1 µg/mL (≈ 1.28 µM)
CCCCCCc1c(-c2ccc(OCCCCN3CCCC(C)C3)cc2OCCCCN2CCCC(C)C2)oc2cc(OC)cc(O)c2c1=O (stereo not drawn)	1 µg/mL (≈ 1.45 µM)	2 µg/mL (≈ 2.89 µM)	2 µg/mL (≈ 2.89 µM)	2 µg/mL (≈ 2.89 µM)	2 µg/mL (≈ 2.89 µM)	2 µg/mL (≈ 2.89 µM)	2 µg/mL (≈ 2.89 µM)	2 µg/mL (≈ 2.89 µM)
CCCCCCc1c(-c2ccc(OCCCCNCc3ccco3)cc2OCCCCNCc2ccco2)oc2cc(OC)cc(O)c2c1=O	2 µg/mL (≈ 2.91 µM)	4 µg/mL (≈ 5.82 µM)	2 µg/mL (≈ 2.91 µM)	4 µg/mL (≈ 5.82 µM)	4 µg/mL (≈ 5.82 µM)	2 µg/mL (≈ 2.91 µM)	2 µg/mL (≈ 2.91 µM)	4 µg/mL (≈ 5.82 µM)
CCCCCCc1c(-c2ccc(OCC(=O)CN[C@H](CCCNC(=N)N)C(N)=O)cc2OCC(=O)CN[C@H](CCCNC(=N)N)C(N)=O)oc2cc(OC)cc(O)c2c1=O	8 µg/mL (≈ 9.54 µM)	8 µg/mL (≈ 9.54 µM)	32 µg/mL (≈ 38.1 µM)	> 64 µg/mL	8 µg/mL (≈ 9.54 µM)	32 µg/mL (≈ 38.1 µM)	> 64 µg/mL	> 64 µg/mL
CCCCCCc1c(-c2ccc(OCCN(C)C)cc2OCCN(C)C)oc2cc(OC)cc(O)c2c1=O	1 µg/mL (≈ 1.9 µM)	2 µg/mL (≈ 3.8 µM)	1 µg/mL (≈ 1.9 µM)	4 µg/mL (≈ 7.59 µM)	4 µg/mL (≈ 7.59 µM)	2 µg/mL (≈ 3.8 µM)	2 µg/mL (≈ 3.8 µM)	4 µg/mL (≈ 7.59 µM)
CCCCCCc1c(-c2ccc(OCCCCN(CCC)CCC)cc2OCCCCN(CCC)CCC)oc2cc(OC)cc(O)c2c1=O	8 µg/mL (≈ 11.5 µM)	8 µg/mL (≈ 11.5 µM)	16 µg/mL (≈ 23 µM)	16 µg/mL (≈ 23 µM)	16 µg/mL (≈ 23 µM)	8 µg/mL (≈ 11.5 µM)	16 µg/mL (≈ 23 µM)	16 µg/mL (≈ 23 µM)
CCCCCCc1c(-c2ccc(OCCCCNCCc3ccccc3)cc2OCCCCNCCc2ccccc2)oc2cc(OC)cc(O)c2c1=O	4 µg/mL (≈ 5.44 µM)	4 µg/mL (≈ 5.44 µM)	8 µg/mL (≈ 10.9 µM)	8 µg/mL (≈ 10.9 µM)	4 µg/mL (≈ 5.44 µM)	4 µg/mL (≈ 5.44 µM)	4 µg/mL (≈ 5.44 µM)	4 µg/mL (≈ 5.44 µM)
CCCCCCc1c(-c2ccc(OCCCCN(CC)CC)cc2OCCCCN(CC)CC)oc2cc(OC)cc(O)c2c1=O	2 µg/mL (≈ 3.13 µM)	1 µg/mL (≈ 1.57 µM)	2 µg/mL (≈ 3.13 µM)	4 µg/mL (≈ 6.26 µM)	2 µg/mL (≈ 3.13 µM)	2 µg/mL (≈ 3.13 µM)	2 µg/mL (≈ 3.13 µM)	4 µg/mL (≈ 6.26 µM)
CCCCCCc1c(-c2ccc(OCCCCNCc3ccc(Cl)cc3)cc2OCCCCNCc2ccc(Cl)cc2)oc2cc(OC)cc(O)c2c1=O	32 µg/mL (≈ 41.2 µM)	16 µg/mL (≈ 20.6 µM)	32 µg/mL (≈ 41.2 µM)	32 µg/mL (≈ 41.2 µM)	32 µg/mL (≈ 41.2 µM)	16 µg/mL (≈ 20.6 µM)	32 µg/mL (≈ 41.2 µM)	32 µg/mL (≈ 41.2 µM)

Structure (SMILES)	MIC (Staphylococcus aureus [1])	MIC (Staphylococcus aureus [2])	MIC (Staphylococcus aureus [3])	MIC (Enterococcus faecalis [4])	MIC (Staphylococcus aureus [5])	MIC (Staphylococcus aureus [6])	MIC (Enterococcus faecalis [7])	MIC (Enterococcus faecalis [8])
CCCCCCCCc1c(-c2ccc(O)cc2O)oc2cc(OC)cc(O)c2c1=O	8 µg/mL (≈ 19.4 µM)	–	–	–	–	–	–	16 µg/mL (≈ 38.8 µM)
CC(C)=CCC/C(C)=C/CCCc1c(-c2ccc(O)cc2O)oc2cc(O)cc(O)c2c1=O	32 µg/mL (≈ 71 µM)	–	–	–	–	–	–	> 64 µg/mL
CCCCCCc1c(-c2ccc(OCCCCNCc3ccc(Br)cc3)cc2OCCCCNCc2ccc(Br)cc2)oc2cc(OC)cc(O)c2c1=O	64 µg/mL (≈ 74 µM)	64 µg/mL (≈ 74 µM)	> 64 µg/mL	> 64 µg/mL	–	64 µg/mL (≈ 74 µM)	> 64 µg/mL	> 64 µg/mL
C=CCc1c(-c2ccc(OC)cc2OC)oc2cc(OC)cc(OC)c2c1=O	> 64 µg/mL	–	–	–	–	–	–	> 64 µg/mL
CCCCCCCCCCCCc1c(-c2ccc(O)cc2O)oc2cc(O)cc(O)c2c1=O	32 µg/mL (≈ 70.4 µM)	–	–	–	–	–	–	64 µg/mL (≈ 141 µM)
COc1ccc(-c2oc3cc(OC)cc(OC)c3c(=O)c2CCC/C=C(\C)CCC=C(C)C)c(OC)c1	> 64 µg/mL	–	–	–	–	–	–	> 64 µg/mL
C=CCc1c(-c2ccc(O)cc2O)oc2cc(OC)cc(O)c2c1=O	32 µg/mL (≈ 94 µM)	–	–	–	–	–	–	64 µg/mL (≈ 188 µM)
CCCCCCCCc1c(-c2ccc(O)cc2O)oc2cc(O)cc(O)c2c1=O	16 µg/mL (≈ 40.2 µM)	–	–	–	–	–	–	16 µg/mL (≈ 40.2 µM)
CCCCCCCCCCCCCCCCc1c(-c2ccc(O)cc2O)oc2cc(OC)cc(O)c2c1=O	32 µg/mL (≈ 61 µM)	–	–	–	–	–	–	64 µg/mL (≈ 122 µM)
CCCCCCCCc1c(-c2ccc(OC)cc2OC)oc2cc(OC)cc(OC)c2c1=O	> 64 µg/mL	–	–	–	–	–	–	> 64 µg/mL
CCCCCc1c(-c2ccc(O)cc2O)oc2cc(O)cc(O)c2c1=O	16 µg/mL (≈ 44.9 µM)	–	–	–	–	–	–	16 µg/mL (≈ 44.9 µM)
CCCCCCCCCCCCc1c(-c2ccc(OC)cc2OC)oc2cc(OC)cc(OC)c2c1=O	> 64 µg/mL	–	–	–	–	–	–	> 64 µg/mL
COc1cc(O)c2c(=O)c(CCC/C=C(\C)CCC=C(C)C)c(-c3ccc(O)cc3O)oc2c1	16 µg/mL (≈ 34.4 µM)	–	–	–	–	–	–	32 µg/mL (≈ 68.9 µM)
CC(C)=CCCc1c(-c2ccc(O)cc2O)oc2cc(O)cc(O)c2c1=O	32 µg/mL (≈ 86.9 µM)	–	–	–	–	–	–	32 µg/mL (≈ 86.9 µM)
CC(C)=CCCC1=C[C@@H](c2c(O)cc3oc(-c4ccc(O)cc4O)cc(=O)c3c2O)[C@H](C(=O)c2ccc(O)cc2O)[C@@H](c2ccc(O)cc2O)C1	5 µg/mL (≈ 7.22 µM)	–	–	–	–	–	–	10 µg/mL (≈ 14.4 µM)
CCCc1c(-c2ccc(OC)cc2OC)oc2cc(OC)cc(OC)c2c1=O	> 64 µg/mL	–	–	–	–	–	–	> 64 µg/mL
